Results reported in US20260224521A1, “BIOMOLECULE FOR TREATMENT OF CORNEAL PATHOLOGIES” (Board of Supervisors of Louisiana State University and …, priority 2019, published 2026).

How the values were obtained:
AXL receptors = conditions: osteoporosis mouse model (97); cited from earlier work
mouse cornea [1] = conditions: topical eye drops, 3× daily for 96 hours; 2005 (76); cited from earlier work
corneal nerves [2] = conditions: daily i.p. injections of 1 ng/g body weight for 8 weeks; 2017 (79); cited from earlier work
[3] = topical NGF (95); cited from earlier work
corneal nerves [4] = test: Corneal nerve analysis (PGP9.5 and SP whole-mount nerve density); type: in vivo, mouse
Description: PEDF+DHA stimulates corneal nerve regeneration in injury animal models (20-25). It was important to confirm the biological activity of RvD6si as a lipid mediator underlying the action of PEDF+DHA. To validate this, mice were injured and treated (as described in FIG. 4). Isolated corneas were stained with PGP 9.5, a pan-neuronal marker, and with SP neuropeptide antibodies. The density of non-injured corneal nerves positive to PGP 9.5 and SP, respectively, was used to normalize the values (FIG. 5). Substance P is a main neuropeptide in mammalian corneas (26-28).
(§1) Mice were anesthetized with a mix of ketamine (200 mg/kg) and xylazine (10 mg/kg) injected intraperitoneally, and one drop of proparacaine hydrochloride solution (0.5%) was applied to the right eye subjected to injury. As previously described (19, 29), the center of the cornea was demarcated with a 2 mm trephine, and the epithelium and the anterior stroma were gently removed under a surgical microscope using a corneal rust ring remover (Algerbrush II; Alger Equipment Co., Lago Vista, TX, USA). One drop of 0.3% of tobramycin ophthalmic solution (Henry Schein, Melville, NY, USA) was applied to the eye to prevent postoperative infection. The same investigator (J.H.) performed all surgeries. Afterward, 10 μl of PEDF (50 ng/ml) plus DHA (50 nM) or DHA-derived lipid mediators were applied topically, as explained in each experimental design.
Twelve days after injury and treatment, mice were euthanized, and the eyes enucleated and fixed with Zamboni's fixative (American Master Tech Scientific, Lodi, CA, USA) for 45 min at room temperature. The corneas were then excised and fixed for an additional 15 min, followed by 3 washes with PBS. To block nonspecific binding, corneas were incubated with 10% normal goat serum plus 0.5% Triton X-100 in PBS for 1 h at room temperature. Afterward, corneas were incubated with the primary antibodies, rabbit monoclonal anti-PGP9.5 (1:500), (ab108986; Abcam, Cambridge, MA, USA), and rat monoclonal anti-substance-P (SP; 1:100) (sc-21715; Santa Cruz Biotechnology, Dallas, TX, USA) for 24 h at room temperature with constant shaking. After being washed with PBS, the corneas were incubated with the corresponding secondary antibodies goat anti-rabbit Alexa-Fluor 488 (1:1000) and goat anti-rat Alexa-Fluor 488 (1:1000) (Thermo Fisher Scientific, Waltham, MA, USA) for 24 h at 4° C. Four radial cuts were performed on each cornea that was flatly mounted on a slide with the endothelium side up and examined with a fluorescent microscope (Deconvolution microscope DP80; Olympus, Tokyo, Japan). The images were merged together to build the entire view of the corneal nerve network. The corneal nerve density was measured using Photoshop CC 2014 (Adobe) as previously described (26, 29).

mouse cornea [5] = test: Corneal sensitivity measurement (Belmonte non-contact aesthesiometer); type: in vivo; conditions: day 9 after injury and treatment; vs vehicle
Protocol: Corneal sensitivity was evaluated at days 3, 6, 9 and 12 after corneal injury and treatment (FIG. 4). A new methodology to measure the sensation in mouse cornea was introduced using the Belmonte non-contact aesthesiometer. […] It is important to note that this range of normal corneal sensitivity is critical to evaluate corneal sensation since the Belmonte non-contact aesthesiometer working flow rate is from 20 to 200 ml/min. The range of normal corneal sensitivity from […] in the mouse was regarded as successful recovery after injury and treatment, and it was used to normalize the measurements.
as §1
The non-contact corneal aesthesiometer has been described as a more reliable method than the standard Cochet-Bonnet aesthesiometer to determine the corneal sensation threshold (54). Therefore, for corneal sensation measurement, the Belmonte non-contact corneal aesthesiometer (55) was used with some modification. Briefly, one researcher held the mouse and kept the air output needle at a distance of 3 mm from the cornea. Another researcher controlled the air flow rate. The measurements started at an air flow rate of 80 ml per minute and then increased gradually by ten units until the mouse started blinking. When the mouse blinked, the air flow rate was recorded as the final corneal sensitivity index.

mouse cornea [6] = test: Corneal wound healing 20 h after injury (methylene blue stained wounded area); type: in vivo; conditions: 20 h after injury and topical treatment; compared to vehicle
Protocol: Studies have shown that PEDF+DHA promotes corneal wound healing in rabbit (20, 21), and in normal and diabetic mice (24, 25) after experimental surgery. We validated the ability of RvD6s (either RvD6 or RvD6si) in stimulating corneal wound healing. The right mouse eyes were injured, and the animals were divided into four groups: vehicle, PEDF+DHA, RvD6, and RvD6si (FIG. 4).
as §1
Mice were euthanized 20 h after injury and treatment, and corneas were stained with 0.5% methylene blue for 20 sec and then washed with PBS for 2 min. Photographs were taken with a dissecting microscope (SMZ 1500; Nikon, Tokyo, Japan) through an attached digital camera (DXM 1200; Nikon). The images corresponding to the wounded area were quantified using Photoshop CC 2014 software (Adobe, San Jose, CA, USA).

[7] = test system: trigeminal ganglion (TG) gene expression; test: Trigeminal ganglion RNA sequencing after corneal injury and treatment; type: in vivo, mouse; conditions: RNA-seq, 12 days after corneal injury and topical treatment; vs vehicle
Protocol: Because corneal sensory nerves originate in TG neurons, we wanted to validate whether corneal injury could be sensed in the TG and t, in turn, would elicit a gene expression response. Thus, TG were harvested 12 days after injury and treatment with RvD6si or RvD6 or vehicle treatment used as control (FIG. 4) and then RNA-seq analysis was performed. […] The box plots depict two activated genes by RvD6si in this class: C9orf72 and Gpm6a (FIG. 6). We also detected specific genes related to neuropeptides and ion channel receptors in the cornea that are stimulated by the addition of PEDF+DHA (19, 21, 24) (FIG. 6D). The RNA-seq established that RvD6 or RvD6si reduced gene expression of two major neuropeptides, tachykinin precursor 1 (Tac1) that encodes Substance P (SP) and calcitonin-related polypeptide beta (Calcb). It is important to note that these neuropeptides, especially Calcb, are major pain-induced mediators in migraine and other primary headaches (30).
TG corresponding to the injury eye side (n=5) were harvested and kept in RNAlater solution (Thermo Fisher Scientific) until homogenized on ice using a Dounce homogenizer. Total mRNA was extracted using an RNeasy mini kit (Qiagen, Germantown, MD, USA) as described by the manufacturer. Purity and concentration of RNA were determined with a NanoDrop ND-1000 spectrophotometer (Thermo Fisher Scientific), and the samples were stored at −80° C. until used. RNA sequencing was performed using the adapted Smart-seq2 protocol (56). Briefly, one ng of total RNA was reverse transcribed with the Oligo-dT30VN and template-switching oligo (TSO) primers. The total cDNAs were amplified using ISPCR primer, and the library was made using the Nextera XT DNA library preparation kit (Illumina, San Diego, CA, USA). The libraries were pooled using the same molarity and sequenced using the NextSeq 500/550 High Output Kit v2 (75 cycles, Illumina). After demultiplexing, RNA-seq data were aligned to the GENCODE GRCm38 mouse primary genome assembly (Release M22, gencodegenes.org/mouse/) using the RSubread package v1.34.6 for R v3.6.1 (57). The outputted BAM files for sequencing data alignment were counted using featureCounts function (Subread v1.6.5 in Ubuntu LTS 16.4 operating system) (58). Next, the raw count data were subjected to differential gene expression analysis using DESeq2 package for R (59). The adjusted p-values were regarded as the false discover rate (FDR).

[8] = Incorporation of DHA into PC and PE after topical DHA to corneas with damaged stromal nerves; type: in vivo; conditions: 1 h, injured mouse corneas
Protocol: Proportion of PC and PE containing oleic acid (18:1) in the sn-1 and DHA in the sn-2 position. PE was more enriched in the DHA than PC. […] Corneal lipid profiles were analyzed by mass spectrometry-based lipidomic analysis.

rabbit cornea = conditions: cited from earlier work
injured corneas = conditions: NPD1 added to injured corneas (27); cited from earlier work
[9] = mouse model of tibia bone fracture (96); cited from earlier work
mouse cornea [10] = conditions: subconjunctival injection every 48 hours, 14 days; 2009 (77); cited from earlier work
[11] = test system: retinal pigment epithelial (RPE) cells; conditions: RPE cells (16); cited from earlier work

For `CC/C=C\C[C@@H](O)/C=C/C=C/C/C=C\C/C=C\C/C=C\CCC(=O)O` [17R-hydroxy DHA], the pain behavior (AXL receptors) is given as “decrease pain behavior”.

For `CC/C=C\C[C@H](O)/C=C/C=C\C/C=C\C/C=C\C/C=C\CCC(=O)O` [17S-HDHA], the “PMNs in the cornea” value (mouse cornea [1]) is given as “Increased”, the “formation of the proinflammatory chemokine KC” value (mouse cornea [1]) is given as “Decreased” and the rate of re-epithelialization (mouse cornea [1]) is given as “Increased the rate of re-epithelialization”.

For `CC/C=C\C[C@H](O)/C=C/C=C\C=C\C=C\[C@@H](O)[C@@H](O)C/C=C\CCC(=O)OC` [RvD1-methyl ester], the “diabetes-induced corneal nerve lost” value (corneal nerves [2]) is given as “Reduced the diabetes-induced comeal nerve”.

In the case of NGF: nerve growth factor, the “side effect of topical treatment” value [3] is given as “ocular pain”.

In the case of `CC/C=C\C[C@H](O)[C@H](O)/C=C/C=C/C=C\C=C\[C@@H](O)C/C=C\CCC(=O)OC` [RvD2-methyl ester], the “diabetes-induced corneal nerve lost” value (corneal nerves [2]) is given as “Reduced the diabetes-induced comeal nerve”.

For `CC/C=C\C[C@H](O)/C=C/C=C\C/C=C\C/C=C\C=C\[C@@H](O)CCC(=O)O` [RvD6, 4S,17S-dihydroxy-5E,7Z,10Z,13Z,15E,19Z-docosahexaenoic acid, reference compound], the “total corneal nerve density, differences between RvD6si, RvD6, and PEDF+DHA” value (corneal nerves [4]; 12 days after injury and treatment) was “no significant differences”, the “total corneal nerve density (PGP 9.5)” value (corneal nerves [4]; 12 days after injury and treatment, % of the normal (uninjured) cornea) was 59.7±11.2% and the “density of SP-positive nerves” value (corneal nerves [4]; 12 days after injury, compared to the vehicle-treated group) was “higher”. The corneal sensitivity (mouse cornea [5]) was “higher”, the “corneal wound healing (wound closure)” value (mouse cornea [6]) was “faster” and the “Calcb gene expression in TG” value [7] was “reduced”. The “Tac1 gene expression in TG” value [7] was “reduced”.

In the case of `CC/C=C\C/C=C\C/C=C\C/C=C\C/C=C\C/C=C\CCC(=O)O` [DHA, docosahexaenoic acid], the “incorporation of the fatty acid in PC and PE molecular species containing 18:1-DHA” value [8] is reported as “rapid incorporation”.

For `CC/C=C\C[C@H](O)\C=C/C=C/C=C/[C@H](O)C/C=C\C/C=C\CCC(=O)O` [NPD1, neuroprotectin D1], the “PMNs in the cornea” value (mouse cornea [1]) is given as “Increased”, the “formation of the proinflammatory chemokine KC” value (mouse cornea [1]) is given as “Decreased” and the rate of re-epithelialization (mouse cornea [1]) is given as “Increased the rate of re-epithelialization”. For the same molecule, the neutrophil infiltration (rabbit cornea; after 2 and 4 days of treatment, 2013 (41)) was “Decreased neutrophil infiltration after 2 and 4”, the “subepithelial corneal nerves and tear secretion” value (rabbit cornea; topical eye drops 33 ng/eye, 3× daily for 6 weeks, 2013 (41)) was “Increased subepithelial corneal nerves and tear” and the “gene expression and protein levels of NGF, BDNF and Sema7A” value (injured corneas) was “increase”.

For `CC/C=C\C[C@H](O)/C=C/C=C\C[C@@H](O)/C=C/C=C/C=C\[C@@H](O)CCC(=O)O` [RvD3, Resolvin D3], the pain [9] is listed as “no effect”.

For `CC/C=C\C[C@H](O)/C=C\C=C\C/C=C/C=C/C=C/C(O)[C@@H](O)CCC(=O)O` (stereo in doubt) [RvD4, Resolvin D4], the pain [9] is given as “no effect”.

In the case of `CC/C=C\C[C@H](O)/C=C/C=C\C=C\C=C\[C@@H](O)[C@@H](O)C/C=C\CCC(=O)O` [RvD1, Resolvin D1], the “mRNA expression levels of TNF-α, IL-1α, IL-1β, VEGF-A, VEGF-C, and VEGFR2” value (mouse cornea [10]) is listed as “macrophages and reduced mRNA expression”, the “suture-induced or IL-1β-induced hemangiogenesis (HA)” value (mouse cornea [10]) is listed as “Suppressed suture-induced or IL-1β-induced” and the pain [9] is listed as “pain attenuation”. For the same molecule, the “diabetes-induced corneal nerve lost” value (corneal nerves [2]) was “Reduced the diabetes-induced comeal nerve”.

In the case of `CC/C=C\C[C@H](O)/C=C/C=C\C/C=C\C=C\[C@@H](O)C/C=C\CCC(=O)O` [RvD5, Resolvin D5], the pain [9] is given as “pain attenuation”.

B1: PEDF: pigment epithelium-derived factor, a broad-acting neurotrophic and neuroprotective factor (protein, UniProt P36955 20-418, looked up)
Pigment epithelium-derived …: QNPASPPEEGSPDPDSTGALVEEEDPFFKVPVNKLAAAVSNFGYDLYRVRSSTSPTTNVLLSPLSVATALSALSLGAEQRTESIIHRALYYDLISSPDIHGTYKELLDTVTAPQKNLKSASRIVFEKKLRIKSSFVAPLEKSYGTRPRVLTGNPRLDLQEINNWVQAQMKGKLARSTKEIPDEISILLLGVAHFKGQWVTKFDSRKTSLEDFYLDEERTVRVPMMSDPKAVLRYGLDSDLSCKIAQLPLTGSMSIIFFLPLKVTQNLTLIEESLTSEFIHDIDRELKTVQAVLTVPKLKLSYEGEVTKSLQEMKLQSLFDSPDFSKITGKPIKLTQVEHRAGFEWNEDGAGTTPSPGLQPAHLTFPLDYHLNQPFIFVLRDTDTGALLFIGKILDPRGP
For B1, the “potency in stimulating NPD1 synthesis relative to NGF” value [11] is listed as 10 times and the cornea nerve regeneration (rabbit cornea; treatment with PEDF or DHA alone (19)) is listed as “no increase”.
